Measured values from patent publication US20070259939A1, “USING NALTREXONE AS A MULTI-PURPOSE HEALTH SUPPLEMENT TO IMPROVE THE HUMAN CONDITION AND PREVENTING MULTIPLE DISEASES AND INFIRMITIES BY STIMULATING IMMUNE SYSTEM VITALITY AND ROBUSTNESS” (ACCELERATED TECHNOLOGIES, priority 2006, published 2007).

Tests used:
[1] = tested on: alcohol cravings; test: inhibition of alcohol cravings by low dose naltrexone; assay type: in vivo, human
Description: Naltrexone is already known to help cure addictive behaviors, such as alcoholism, opiate, narcotic and tobacco addiction. With respect to the treatment of alcohol addiction, naltrexone may be effective because it eliminates the neural positive reinforcement normally experienced in the brain by blocking the receptors that provide the stimulatory effect felt from alcohol. As a result of the lack of positive reinforcement, there is no internal incentive to drink alcohol. In a similar manner, in another embodiment of the invention, the daily administration of low dose naltrexone may greatly reduce or eliminate the tendency to engage in addictive behavior by preventing its onset. This may be accomplished by diminishing any potential internal rewards for using chemical substances in the first place. […] The diminished desire for alcohol resulting from a low dose of naltrexone may be effective for more than 24 hours, thus for example a dose administered at 7:00 pm one evening may continue to inhibit alcohol cravings throughout the following evening. A person in need of curbing an alcoholic appetite may take a pill, either before or along with the drink, and discover no desire for a second or third drink. To further eliminate an alcoholic appetite, a series of 1.5 mg naltrexone doses may be taken without alcohol, starting for example at about 6:00 pm.

[2] = tested on: cancer patients; settings: low dose naltrexone; cited from earlier work
[3] = tested on: beta-endorphins; settings: small doses each night; following days; patients who initially had deficient endorphin levels; cited from earlier work
[4] = low dose levels; cited from earlier work

## O=C1CC[C@@]2(O)[C@H]3Cc4ccc(O)c5c4[C@@]2(CCN3CC2CC2)[C@H]1O5 [naltrexone]
[1]; low dosage, around 4.5 mg
  effect on alcohol cravings: greatly inhibit alcohol cravings
[1]; low dose of naltrexone
  duration of diminished desire for alcohol: more than 24 hours
[2]
  cancer patients with a positive effect (for example stopping the spread of tumors): ≤ 65%
  cancer patients with remission: 30%
[3]
  increase in beta-endorphins circulating in the blood: 200-300%
[4]
  side effects: not known to have any important side effects
